Common to all, as to format: cell-based
Experiment [1] has as its system SKMEL-188 and WM-164 cell lines. The experiment can be described thus: SRB assay, statements on both melanoma cell lines. The protocol:
Louis, Mo.). WM-164 cells (gift of Dr. Meenhard Herlyn, Wistar Inst., Philadelphia, Pa.) and human dermal fibroblasts (Cascade Biologics, Inc., Portland, Oreg.) were cultured in DMEM medium (Cellgro Mediatech, Inc.) supplemented with 5% fetal bovine serum, 1% antibiotic.antimycotic mixture and bovine insulin ([…], Sigma-Aldrich, Inc.). Human dermal fibroblasts were used as a control to examine the effects of compounds on stromal environment. Thus, the effect of the various compounds on melanoma cells versus fibroblasts would document their potential selectivity. Sulforhodamine B Assay: Cells were seeded into 96-well plates at 5000 cells/well. After 12 hours, media were changed and serial dilutions of compounds were added. Cells were incubated with each compound for 48 hours. Fresh media containing the test compound were changed ever 24 hours. Thereafter, total cell protein corresponding to cell numbers (both viable and non-viable cells) were measured using the sulforhodamine B (SRB) assay according to manufacturer's protocol (Sigma-Aldrich, Inc.) (Rubinstein et al., “Comparison of in vitro Anticancer Drug-screening Data Generated with a Tetrazolium Assay Versus a Protein Assay Against a Diverse Panel of Human Tumor Cell Lines,” J. Natl. Cancer Inst. 82:1113-1118 (1990); Dothager et al., “Synthesis and Identification of Small Molecules that Potently Induce Apoptosis in Melanoma Cells Through GI Cell Cycle Arrest,” J. Am. Chem. Soc. 127:8686-8696 (2005), each of which is hereby incorporated by reference in its entirety). Briefly, cells were fixed with trichloracetic acid, washed and incubated with sulforhodamine B for 30 minutes. After another wash, dye incorporated into the cells was solubilized and measured using a plate reader at 565 nm. Statistical Analysis: Data is presented as mean±SEM (n=6-8). […] Statistical analyses were performed with Student's t-test (*p<0.05; **p<0.005). […] DTIC and Taxol were assayed in the same way for comparison and served as internal quality controls in the different batches of assay. For comparison, the activities of 5R and 5S were measured.

Another experiment relates to SKMEL-188 cells. The experiment can be described thus: Lactate dehydrogenase release assay. The conditions noted are these: SKMEL-188, 48 hours, FIG. 11A. How it is done:
(§1) SKMEL-188 melanoma cells were incubated with Compound 4(R) at 60 μM for 48 hours. FIG. 11A is a graph showing the cytotoxicity as measured by LDH release from the cells following treatment. Data is presented as mean±SEM (n=8), *p<0.05, **p<0.005. FIG. 11B is a pair of graphs that show the DNA content, as measured by flow cytometry, of cells that were exposed to control (left) and Compound 4(R) (right).
Lactate Dehydrogenase Release Assay: SKMEL-188 cells were seeded at a density of 5000 cells per well in a 96-well flat-bottom microtiter plate. Media were changed after 12 hours and the testing compound was added at serial dilutions. Media were changed with fresh compound every 24 hours. […] Lactate dehydrogenase (LDH) in supernatants was measured using Cytotox 96 Non-Radioactive Cytotoxicity Assay (Promega, Madison, Wis.). […] At the end of incubation stop solution was added to each well and plate was read at 490 nm. Cytotoxicity of compounds was calculated using the following formula: percent cytotoxicity=experimental LDH release/maximum LDH release Experimental LDH release was calculated by subtraction of absorbance corresponding to media only from absorbance corresponding to control/compound treated cells. Maximum LDH release was calculated by subtraction of absorbance corresponding to media with added lysis solution from absorbance corresponding to cells lysed with lysis solution. […]

Another experiment concerns SKMEL-188 melanoma cells. The experiment can be described thus: DNA content analysis by flow cytometry. The note with it: SKMEL-188, 48 hours, 6 μM and 60 μM, FIG. 11B, Hydrochloride. How it is done:
as §1
DNA Content Analysis: SKMEM-188 cells were seeded in 10 cm Petri dishes at a density of 10^6 cell per dish. At 12 hours, the medium was changed to 5% FBS with different concentrations of the testing compound. Cells were incubated for 48 hours, and media with compounds were changed every 24 hours. Cells were trypsinized, washed with PBS, and fixed in ice-cold 70% ethanol. After fixing, the ethanol was removed by centrifugation, and cells were incubated in phosphate-citrate buffer (0.2M Na2HPO4, 4 mM citric acid, pH=7.8) for 1 hour. […] Samples were shaken for 30 minutes, and analyzed with FACS Caliber cytometer (Becton Dickinson, San Diego, Calif.). Data was analyzed and graphs were prepared using Modfit 2.0 (Verity Sofware House, Topsham, Me.).
To examine more closely the cell death induced by the tested compounds, LDH release was measured by calorimetric assay and DNA content was analyzed by flow cytometry. […]
For orientation: Flow cytometry measures light scatter and fluorescence of single cells or particles in a stream.

pIC50: −log10 of the molar value.

Broadly, the pIC50 is the IC50 on a negative log10 scale, so that one unit is a factor of ten.

On to `CCCCCCCCCCCCCCNC(=O)[C@@H]1CSC(c2ccccc2)N1.Cl` (mixture of isomers) [Compound 4, (2RS, 4R)-2-Phenylthiazolidine-4-carboxylic acid tetradecylamide Hydrochloride], for which the pIC50 in experiment [1] (48 h, read-out: IC50 against both melanoma cell lines) was roughly 6.30. Also, the “Selectivity against both neoplastic cell lines (versus fibroblasts)” value in experiment [1] (melanoma cells versus fibroblasts) is reported as “over 10 fold”. In addition, in the experiment with SKMEL-188 cells, the “LDH released to cellular environment” value is “dramatic does-dependent increase of LDH released”. Further, the “DNA content / mode of cell death” value in the experiment on SKMEL-188 melanoma cells (listed as 4 (R enantiomer)) was “causes necrotic cell death”; in the experiment with SKMEL-188 melanoma cells (listed as 4R) it was “disappearance of peaks corresponding to viable, proliferating cells”.

These data come from patent US7662842B2, “Thiazolidinone amides, thiazolidine carboxylic acid amides, and serine amides, including polyamine conjugates thereof, as selective anti-cancer agents” (Ohio State Univesity Research Foundation, priority 2003, dated 2010).
